US20150374680A1, “POCHOXIME CONJUGATES USEFUL FOR THE TREATMENT OF HSP90 RELATED PATHOLOGIES” (UNIVERSITE DE STRASBOURG, priority 2010, published 2015)
Where two headings read alike, the source gives them in different places.

What was measured:
[1] = target: T1, human HSP90α (Homo sapiens, UniProt P07900); test: biochemical; format: binding
T1 construct: purchased Stressgen SPP-776F

[2] = tested on: Her-2 in SkBr3 cells; test: Her-2 depletion in SkBr3 cells (pharmacodynamic marker of cellular efficacy); format: cell-based; settings: Homo sapiens, SK-BR-3; SkBr3 cells treated with the inhibitor overnight; read-out: PD (μM), pharmacodynamic EC50, Her-2 depletion
Protocol: FIG. 2. Cellular efficacy of pochoximes A1B5C1D1 (IC50). Depletion of Her-2 in SkBr3 cells were treated treated with the inhibitor for 18 h. […]

[3] = competition assay, read-out: Measure KD against human HSP90α

Compound	EC50 [1] [nM]	further results
COC(=O)CON=C1C=CCCC=CCCOC(=O)c2c(O)cc(O)cc2C1 [Compound A1B1C4D26]	372	EC50 [2]: ≤ 10 µM
CCCC1CC=CC(C)CC=CC(=NOCC(=O)N2CCCCC2)Cc2c(Cl)c(O)cc(O)c2C(=O)O1 (stereo not shown) [Compound A2B4C2D1]	1750	EC50 [2]: ≤ 10 µM
O=C1OCCC=CC(O)CC=CC(=NOCC(=O)N2CCCCC2)Cc2c(Cl)c(O)cc(O)c21 (stereo not shown) [Compound A2B5C4D1]	18	
CC1CCN(C(=O)CON=C2C=CCCC=CCCOC(=O)c3c(O)cc(O)cc3C2)CC1 [Compound A1B1C4D4]	70	EC50 [2]: ≤ 0.5 µM
CCCC1CC=CCCC(C)=CC(=NOCC(=O)N(CC)CC)Cc2c(Cl)c(O)cc(O)c2C(=O)O1 (stereo not shown) [Compound A2B3C2D18]	900	EC50 [2]: > 10 µM
CCN(CC)C(=O)CON=C1C=CCCC=CCCOC(=O)c2c(O)cc(O)cc2C1 [Compound A1B1C4D18]	196	EC50 [2]: ≤ 1 µM
CC1C=CCCOC(=O)c2c(O)cc(O)c(Cl)c2CC(=NOCC(=O)N2CCCCC2)C=CC1 (stereo not shown) [Compound A2B4C4D1]	170	EC50 [2]: ≤ 5 µM
CC1CC=CC(O)CC=CC(=NOCC(=O)N2CCCCC2)Cc2c(Cl)c(O)cc(O)c2C(=O)O1 (stereo not shown) [Compound A2B5C1D1]	10	
O=C1OCCC=CCCC=CC(=NOCC(=O)N2CCOCC2)Cc2cc(O)cc(O)c21 [Compound A1B1C4D10]	124	EC50 [2]: ≤ 0.5 µM
C[C@@H]1C/C=C/[C@H](N)C/C=C/C(=NOCC(=O)N2CCCCC2)Cc2cc(O)cc(O)c2C(=O)O1 [aminopochoxime E]		Kd [1, 3]: 229 nM
CC1CC=CC(O)CC=CC(=NOCC(=O)N2CCCCC2)Cc2cc(O)cc(O)c2C(=O)O1 (stereo not shown) [Compound A1B5C1D1]	20	
CN1CCN(C(=O)CON=C2C=CCCC=CCCOC(=O)c3c(O)cc(O)cc3C2)CC1 [Compound A1B1C4D13]	> 10000	
CC1CC=CCCC=CC(=NOCC(=O)N2CCCCC2)Cc2c(Cl)c(O)cc(O)c2C(=O)O1 (stereo not shown) [pochoxime D]		Kd [1, 3]: 22 nM
O=C1OCCC=CCCC=CC(=NOCC(=O)N2CCCCCC2)Cc2cc(O)cc(O)c21 [Compound A1B1C4D23]	140	
C[C@@H]1C/C=C/[C@H](O)C/C=C/C(=NOCC(=O)N2CCCCC2)Cc2cc(O)cc(O)c2C(=O)O1 [pochoxime F]		Kd [1, 3]: 22 nM
CC1CC=CCCC=CC(=NOCC(=O)N2CCCCC2)Cc2c(Cl)c(O)cc(O)c2C(=O)O1 (stereo not shown) [Compound A2B1C1D1]	39	
C[C@@H]1C/C=C/[C@@H](O)C/C=C/C(=NOCC(=O)N2CCCCC2)Cc2c(Cl)c(O)cc(O)c2C(=O)O1 [epi-pochoxime E]		Kd [1, 3]: 38 nM
CC1CC=CC(N)CC=CC(=NOCC(=O)N2CCCCC2)Cc2cc(O)cc(O)c2C(=O)O1 (stereo not drawn) [epi-aminopochoxime E]		Kd [1, 3]: 34 nM
CC1CC=CC(NC(=O)CSC2OC(CO)C(O)C(O)C2O)CC=CC(=NOCC(=O)N2CCCCC2)Cc2cc(O)cc(O)c2C(=O)O1 (stereo not shown) [As-14(6-R)]		Kd ([1]; Measure KD against human HSP90α (nM)): 90 nM
CC1C=CCC(C)OC(=O)c2c(O)cc(O)cc2CC(=NOCC(=O)N2CCCCC2)C=CC1 (stereo not shown) [Compound A1B4C1D1]	32	
[N-]=[N+]=NCC1CC=CCCC=CC(=NOCC(=O)N2CCCCC2)Cc2c(Cl)c(O)cc(O)c2C(=O)O1 (stereo not shown) [Compound A2B1C7D1]	79	
C[C@@H]1C/C=C/[C@H](O)C/C=C/C(=NOCC(=O)N2CCCCC2)Cc2c(Cl)c(O)cc(O)c2C(=O)O1 [pochoxime E]		Kd [1, 3]: 34 nM
CCCC1CC=CC(C)CC=CC(=NOCC(=O)N2CCCCC2)Cc2cc(O)cc(O)c2C(=O)O1 (stereo not shown) [Compound A1B4C2D1]	811	
CC(=O)N[C@H]1/C=C/C[C@@H](C)OC(=O)c2c(O)cc(O)cc2CC(=NOCC(=O)N2CCCCC2)/C=C/C1 [As-15(6-R)]		Kd [1, 3]: 343 nM
C[C@@H]1C/C=C/[C@@H](O)C/C=C/C(=NOCC(=O)N2CCCCC2)Cc2cc(O)cc(O)c2C(=O)O1 [epi-pochoxime F]		Kd [1, 3]: 14 nM
CC1CCCCN1C(=O)CON=C1C=CCCC=CCCOC(=O)c2c(O)cc(O)cc2C1 (stereo not shown) [Compound A1B1C4D2]	886	
CCN(CC)C(=O)CON=C1C=CCCC=CCC(C)OC(=O)c2c(O)cc(O)cc2C1 (stereo not shown) [Compound A1B1C1D18]	540	
